Source: patent publication US10577368B2 (The United States of America, as represented by the …, priority 2013, dated 2020)
Several values for one entry are separate records, joined by “and”; a condition that tells them apart may be missing. Equal entries are not always repeated. Where two headings read alike, the source gives them in different places.

How the values were obtained:
[1] = target: Alpha 2B adrenergic receptor (Homo sapiens (Human), UniProt P18089); assay: Off-target binding, α2B
Text: (§1) The results are set forth below.

[2] = target: Alpha 2C adrenergic receptor (Homo sapiens (Human), UniProt P18825); assay: Off-target binding, α2C
Text: as §1

[3] = target: h Beta 3 adrenergic receptor (Homo sapiens (Human), UniProt P13945); assay: Off-target binding, β3
h5HT1A = h5HT1A (Homo sapiens (Human), UniProt P08908); assay: Off-target binding, 5HT1A
h5HT2B = h5HT2B (Homo sapiens (Human), UniProt P41595); assay: Off-target binding, 5HT2B
h5HT2C = h5HT2C (Homo sapiens, UniProt P28335); assay: Off-target binding, 5HT2C
hH4 histamine receptor = hH4 histamine receptor (Homo sapiens (Human), UniProt Q9H3N8); assay: Off-target binding, H4
Text: as §1

hM2 muscarinic receptor = hM2 muscarinic receptor (Homo sapiens (Human), UniProt P08172); assay: Off-target binding, M2
DOR opiate receptor = DOR opiate receptor (Homo sapiens (Human), UniProt P41143); assay: Off-target binding, DOR
r Sigma 2 = r Sigma 2 (Rattus norvegicus (Rat), UniProt Q5U3Y7); assay: Off-target binding, Sigma-2; settings: for Ki: off-target binding; for Interaction at Sigma-2: 10 μM
Text: as §1

PBR = PBR (Homo sapiens (Human), UniProt P30536); assay: Off-target binding, PBR; settings: for Ki: off-target binding; for Interaction at PBR: 10 μM
Text: as §1

hA1AR = hA1AR (Homo sapiens (Human), UniProt P30542); assay: Radioligand binding at hA1AR, CHO cell membranes, [3H]R-PIA; settings: read-out: hA1AR % inhibition
hA2AAR = hA2AAR (Homo sapiens (Human), UniProt P29274); assay: Radioligand binding at hA2AAR, HEK293 cell membranes, [3H]CGS21680; settings: read-out: hA2AAR % inhibition
hA3AR = hA3AR (Homo sapiens (Human), UniProt P0DMS8); assay: Radioligand binding at hA3AR, CHO cell membranes, [125I]I-AB-MECA
mA3AR = mA3AR (Mus musculus (Mouse), UniProt Q61618); assay: Competition binding at mA3AR, HEK293 cell membranes
mA1AR = mA1AR (Mus musculus (Mouse), UniProt Q60612); assay: Competition binding at mA1AR, HEK293 cell membranes; settings: read-out: A1AR % inhibition, mouse data (m)
mA2AAR = mA2AAR (Mus musculus (Mouse), UniProt Q60613); assay: Competition binding at mA2AAR, HEK293 cell membranes; settings: read-out: A2AAR % inhibition, mouse data (m) (converted)
[4] = tested on: chronic constriction injury model of neuropathic pain; assay: CCI model of neuropathic pain, reversal of mechano-allodynia; format: in vivo, mice; settings: for Max. effect Emax (% ± SEM) / Time of peak protection: ipsilateral hind paw; for Duration of action / Efficacy in reversing NP in vivo (of full reversal at peak effect): CCI model
human DAT = human DAT (Homo sapiens (Human), UniProt Q01959); assay: Radioligand ([3H]WIN35428) binding at the dopamine transporter; settings: for Ki: off-target binding
[5] = tested on: muscarinic, adrenergic, dopamine, GABA, histamine, opiate, serotonin receptors and transporters; assay: Off-target binding panel (receptors and transporters of Table 5); settings: for Interactions at other receptors of the off-target panel: 10 μM
Text: as §1

r Sigma 1 = r Sigma 1 (Rattus norvegicus (Rat), UniProt Q9R0C9); assay: Off-target binding, Sigma-1; settings: 10 μM
Text: as §1

[6] = Stability in simulated fluids (gastric, intestinal); format: in vitro ADME
Text: In vitro stability parameters for selected compounds are set forth in Table 6, in accordance with an embodiment of the invention.

morphine-dependent rats = settings: naloxone-precipitated withdrawal in morphine-dependent rats; cited from earlier work
Sprague Dawley rats = assay: Toxicity of MRS5698 dosed by gavage; format: in vivo, rat; settings: up to 150 mg/kg by gavage
Protocol: The formulation was dosed at up to 150 mg/kg by gavage to Sprague Dawley rats.

[7] = tested on: chronic constriction injury (CCI) model, mechano-allodynia; assay: Morphine analgesic tolerance in CCI model, co-administration with A3AR agonist; format: in vivo, mice
[8] = tested on: 5 CYP isozymes (1A2, 2C9, 2C19, 2D6, 3A4); assay: Inhibition of 5 CYP isozymes; format: in vitro ADME

Sequence of human DAT (Q01959 whole entry): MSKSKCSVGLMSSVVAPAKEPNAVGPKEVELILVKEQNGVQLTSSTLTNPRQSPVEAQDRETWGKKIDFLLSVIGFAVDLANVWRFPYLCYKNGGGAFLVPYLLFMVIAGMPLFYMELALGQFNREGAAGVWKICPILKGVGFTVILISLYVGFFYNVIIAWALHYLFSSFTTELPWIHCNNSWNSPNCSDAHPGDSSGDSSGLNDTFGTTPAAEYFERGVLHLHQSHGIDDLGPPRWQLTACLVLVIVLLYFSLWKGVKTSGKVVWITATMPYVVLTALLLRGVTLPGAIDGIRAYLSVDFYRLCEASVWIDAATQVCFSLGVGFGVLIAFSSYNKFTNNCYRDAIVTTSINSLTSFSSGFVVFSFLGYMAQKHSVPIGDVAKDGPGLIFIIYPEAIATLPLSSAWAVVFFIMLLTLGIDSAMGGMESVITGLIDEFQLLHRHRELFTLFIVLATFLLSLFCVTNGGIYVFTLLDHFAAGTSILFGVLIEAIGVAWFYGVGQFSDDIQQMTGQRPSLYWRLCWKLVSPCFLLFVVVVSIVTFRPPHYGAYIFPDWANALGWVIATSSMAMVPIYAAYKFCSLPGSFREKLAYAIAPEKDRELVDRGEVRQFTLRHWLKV
Sequence of mA2AAR (Q60613 whole entry): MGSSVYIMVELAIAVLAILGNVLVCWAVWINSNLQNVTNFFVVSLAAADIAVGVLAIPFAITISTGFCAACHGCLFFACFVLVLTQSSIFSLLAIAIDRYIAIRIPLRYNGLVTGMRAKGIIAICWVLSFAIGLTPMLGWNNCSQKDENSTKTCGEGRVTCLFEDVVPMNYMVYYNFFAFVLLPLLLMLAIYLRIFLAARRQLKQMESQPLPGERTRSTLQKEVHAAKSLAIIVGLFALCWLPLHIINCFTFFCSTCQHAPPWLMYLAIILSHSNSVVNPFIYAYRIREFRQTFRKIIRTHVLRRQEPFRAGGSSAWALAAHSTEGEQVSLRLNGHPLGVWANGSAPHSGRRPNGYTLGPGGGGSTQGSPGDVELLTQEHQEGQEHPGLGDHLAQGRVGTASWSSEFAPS
Sequence of Alpha 2B adrenergic receptor (P18089 whole entry): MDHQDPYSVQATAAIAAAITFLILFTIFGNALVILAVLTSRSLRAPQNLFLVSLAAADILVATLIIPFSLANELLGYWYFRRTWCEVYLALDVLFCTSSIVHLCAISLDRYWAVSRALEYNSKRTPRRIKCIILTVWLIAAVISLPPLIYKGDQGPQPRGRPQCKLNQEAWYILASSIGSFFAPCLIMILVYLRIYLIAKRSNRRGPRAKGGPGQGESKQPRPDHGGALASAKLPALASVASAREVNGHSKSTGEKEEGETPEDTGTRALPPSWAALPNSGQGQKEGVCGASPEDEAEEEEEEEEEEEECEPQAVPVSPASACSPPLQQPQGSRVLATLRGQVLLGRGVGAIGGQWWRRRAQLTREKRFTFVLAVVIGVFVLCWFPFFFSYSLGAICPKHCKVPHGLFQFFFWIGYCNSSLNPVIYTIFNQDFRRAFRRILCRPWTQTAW
Sequence of hA2AAR (P29274 whole entry): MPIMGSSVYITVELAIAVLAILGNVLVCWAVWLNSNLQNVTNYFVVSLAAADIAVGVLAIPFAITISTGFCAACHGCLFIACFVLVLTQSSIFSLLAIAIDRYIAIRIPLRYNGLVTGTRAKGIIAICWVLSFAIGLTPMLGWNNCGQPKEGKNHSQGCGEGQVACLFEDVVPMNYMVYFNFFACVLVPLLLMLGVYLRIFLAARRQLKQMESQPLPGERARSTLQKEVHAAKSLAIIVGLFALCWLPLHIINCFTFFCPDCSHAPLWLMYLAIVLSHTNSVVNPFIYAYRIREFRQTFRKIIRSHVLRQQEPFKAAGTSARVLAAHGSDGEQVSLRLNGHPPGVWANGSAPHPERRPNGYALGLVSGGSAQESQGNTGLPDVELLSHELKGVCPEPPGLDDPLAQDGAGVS
Sequence of PBR (P30536 whole entry, species assumed): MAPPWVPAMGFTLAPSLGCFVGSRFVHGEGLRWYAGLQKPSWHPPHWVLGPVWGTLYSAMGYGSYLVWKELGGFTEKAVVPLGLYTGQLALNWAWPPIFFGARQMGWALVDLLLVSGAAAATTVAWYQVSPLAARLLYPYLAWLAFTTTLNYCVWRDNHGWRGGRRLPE
Sequence of mA3AR (Q61618 whole entry): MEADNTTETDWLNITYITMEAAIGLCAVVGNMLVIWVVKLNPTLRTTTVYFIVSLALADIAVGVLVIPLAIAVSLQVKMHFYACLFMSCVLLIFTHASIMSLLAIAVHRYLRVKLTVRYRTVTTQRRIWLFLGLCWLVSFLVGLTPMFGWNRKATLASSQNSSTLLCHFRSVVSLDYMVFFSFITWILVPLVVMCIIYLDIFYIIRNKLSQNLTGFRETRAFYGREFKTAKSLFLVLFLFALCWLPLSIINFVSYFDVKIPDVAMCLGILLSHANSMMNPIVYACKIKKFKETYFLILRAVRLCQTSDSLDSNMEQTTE
Sequence of mA1AR (Q60612 whole entry): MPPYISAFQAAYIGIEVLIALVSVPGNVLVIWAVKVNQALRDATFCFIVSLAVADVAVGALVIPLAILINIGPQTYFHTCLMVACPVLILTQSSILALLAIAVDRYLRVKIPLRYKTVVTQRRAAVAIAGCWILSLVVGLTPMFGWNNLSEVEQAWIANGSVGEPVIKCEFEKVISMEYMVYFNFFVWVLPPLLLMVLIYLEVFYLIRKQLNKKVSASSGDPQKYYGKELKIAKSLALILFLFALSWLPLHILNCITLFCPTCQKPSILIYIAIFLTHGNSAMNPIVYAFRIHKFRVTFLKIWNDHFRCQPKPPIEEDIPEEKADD
Sequence of hA1AR (P30542 whole entry): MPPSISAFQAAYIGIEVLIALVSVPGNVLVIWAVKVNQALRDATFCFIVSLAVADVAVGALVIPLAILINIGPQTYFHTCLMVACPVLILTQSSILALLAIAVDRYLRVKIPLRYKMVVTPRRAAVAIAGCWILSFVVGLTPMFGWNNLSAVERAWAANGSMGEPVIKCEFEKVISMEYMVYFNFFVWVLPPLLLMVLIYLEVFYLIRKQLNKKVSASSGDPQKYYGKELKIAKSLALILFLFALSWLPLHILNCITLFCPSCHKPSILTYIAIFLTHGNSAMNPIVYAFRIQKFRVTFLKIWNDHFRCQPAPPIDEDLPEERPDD
Sequence of r Sigma 2 (Q5U3Y7 whole entry): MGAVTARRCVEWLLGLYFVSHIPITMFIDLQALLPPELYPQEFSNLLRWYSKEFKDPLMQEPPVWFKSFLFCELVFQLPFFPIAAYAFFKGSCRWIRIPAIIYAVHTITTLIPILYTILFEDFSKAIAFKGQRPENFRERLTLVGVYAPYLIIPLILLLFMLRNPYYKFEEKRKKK
Sequence of hA3AR (P0DMS8 whole entry): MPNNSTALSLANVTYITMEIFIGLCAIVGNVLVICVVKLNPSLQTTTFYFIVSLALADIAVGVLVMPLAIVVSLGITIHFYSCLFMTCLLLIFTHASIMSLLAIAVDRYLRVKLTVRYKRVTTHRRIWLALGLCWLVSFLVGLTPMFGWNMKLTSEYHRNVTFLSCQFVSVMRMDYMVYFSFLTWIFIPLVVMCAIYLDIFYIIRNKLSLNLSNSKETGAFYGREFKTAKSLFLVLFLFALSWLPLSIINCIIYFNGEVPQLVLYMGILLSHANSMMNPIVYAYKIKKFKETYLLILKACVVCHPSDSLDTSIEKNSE
Sequence of hM2 muscarinic receptor (P08172 whole entry): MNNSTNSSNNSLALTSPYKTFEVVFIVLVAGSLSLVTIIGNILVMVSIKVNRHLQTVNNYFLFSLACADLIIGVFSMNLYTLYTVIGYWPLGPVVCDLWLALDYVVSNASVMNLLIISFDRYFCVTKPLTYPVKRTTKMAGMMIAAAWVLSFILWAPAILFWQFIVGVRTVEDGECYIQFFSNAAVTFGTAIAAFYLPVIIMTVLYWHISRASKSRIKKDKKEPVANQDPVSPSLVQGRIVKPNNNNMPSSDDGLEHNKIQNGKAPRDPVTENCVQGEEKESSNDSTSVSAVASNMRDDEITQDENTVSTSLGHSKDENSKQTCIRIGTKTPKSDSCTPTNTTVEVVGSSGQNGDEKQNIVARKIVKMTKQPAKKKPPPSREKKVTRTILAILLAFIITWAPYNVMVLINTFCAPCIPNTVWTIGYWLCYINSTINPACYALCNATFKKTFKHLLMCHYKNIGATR
Sequence of h5HT2C (P28335 33-458 limits assumed): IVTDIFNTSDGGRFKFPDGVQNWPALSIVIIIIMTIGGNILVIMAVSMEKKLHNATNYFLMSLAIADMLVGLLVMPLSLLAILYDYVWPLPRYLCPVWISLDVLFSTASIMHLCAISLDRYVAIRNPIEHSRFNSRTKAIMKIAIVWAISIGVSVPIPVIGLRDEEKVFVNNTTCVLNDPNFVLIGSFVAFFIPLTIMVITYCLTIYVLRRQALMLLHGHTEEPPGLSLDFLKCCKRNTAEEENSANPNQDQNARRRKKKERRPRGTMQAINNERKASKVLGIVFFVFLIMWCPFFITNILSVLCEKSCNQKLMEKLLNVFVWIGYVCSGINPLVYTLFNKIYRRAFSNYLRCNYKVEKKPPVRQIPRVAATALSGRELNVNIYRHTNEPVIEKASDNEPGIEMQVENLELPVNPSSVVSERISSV
Sequence of r Sigma 1 (Q9R0C9 whole entry): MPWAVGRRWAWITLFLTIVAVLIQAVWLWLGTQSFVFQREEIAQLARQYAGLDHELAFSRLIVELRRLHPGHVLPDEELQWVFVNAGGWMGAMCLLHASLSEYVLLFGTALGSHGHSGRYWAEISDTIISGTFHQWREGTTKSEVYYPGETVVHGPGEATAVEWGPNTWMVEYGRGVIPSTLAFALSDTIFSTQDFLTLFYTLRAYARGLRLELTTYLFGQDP

SMILES: CNC(=O)C12CC1C(n1cnc3c(NCc4cccc(Cl)c4)nc(C#Cc4ccc(F)c(F)c4)nc31)C(O)C2O (single isomer, unassigned) [MRS5698]
- Ki ([1]; read-out: Ki at α2B): 2900 nM and 4800 nM
- Ki ([1]; read-out: Ki class at α2B): 1000 to 10000 nM
- Ki ([2]; read-out: Ki at α2C): 2000 nM
- Ki ([2]; read-out: Ki class at α2C): 1000 to 10000 nM
- Ki ([3]; read-out: Ki at β3): 5800 nM
- Ki ([3]; read-out: Ki class at β3): 1000 to 10000 nM
- Ki (h5HT1A; read-out: Ki at 5HT1A): 7600 nM
- Ki (h5HT1A; read-out: Ki class at 5HT1A): 1000 to 10000 nM
- Ki (h5HT2B; read-out: Ki at 5HT2B): 2600 nM
- Ki (h5HT2B; read-out: Ki class at 5HT2B): 1000 to 10000 nM
- Ki (h5HT2C; Ki at 5HT2C): 5800 nM
- Ki (h5HT2C; Ki class at 5HT2C): 1000 to 10000 nM
- Ki (hH4 histamine receptor; read-out: Ki at H4): 9400 nM
- Ki (hH4 histamine receptor; read-out: Ki class at H4): 1000 to 10000 nM
- Ki (hM2 muscarinic receptor; read-out: Ki at M2): 5400 nM
- Ki (hM2 muscarinic receptor; read-out: Ki class at M2): 1000 to 10000 nM
- Ki (DOR opiate receptor; read-out: Ki at DOR): 2500 nM
- Ki (DOR opiate receptor; read-out: Ki class at DOR): 1000 to 10000 nM
- Ki (r Sigma 2; read-out: Ki at Sigma-2 (σ2)): 910 nM
- Ki (r Sigma 2; read-out: Ki class at σ2): < 1000 nM
- Ki (PBR; read-out: Ki at PBR): 340 nM
- Ki (PBR; read-out: Ki class at PBR): < 1000 nM

SMILES: CNC(=O)[C@@]12C[C@@H]1[C@@H](n1cnc3c(/C=C(\O)c4ccc(C(C)(C)C)cc4)nc(C#Cc4ccc(C(C)(C)C)cc4)nc31)C(O)C2O (stereo in doubt) [Compound 40, (1S,2S,3R,4R,5S)-4-(6-((Z)-2-(4-(tert-Butyl)phenyl)-2-hydroxyvinyl)-2-((4-(tert-butyl)phenyl)ethynyl)-9H-purin-9-yl)-2,3-dihydroxy-N-methylbicyclo[3.1.0]hexane-1-carboxamide]
- inhibition at 10 µM (hA1AR): 16 ± 5%
- inhibition at 10 µM (hA2AAR): 16 ± 7%
- Ki (hA3AR): 78.5 ± 19.8 nM
- Ki (mA3AR): 136 ± 9 nM

SMILES: CNC(=O)[C@@]12C[C@@H]1[C@@H](n1cnc3c(NC)nc(C#Cc4cccs4)nc31)[C@H](O)[C@@H]2O [Compound 8, (1S,2R,3S,4R,5S)-2,3-Dihydroxy-N-methyl-4-(6-(methylamino)-2-(thiophen-2-ylethynyl)-9H-purin-9-yl)bicyclo[3.1.0]hexane-1-carboxamide]
- inhibition at 10 µM (hA1AR): 25%
- inhibition at 10 µM (hA2AAR): 20 ± 6%
- Ki (mA3AR): 43 ± 2 nM
- inhibition at 10 µM (mA1AR): 47%
- inhibition at 10 µM (mA2AAR): 3%
- Max. effect Emax (% ± SEM) ([4]; 3 μmol/kg p.o., mice): 100 ± 0.0%
- Time of peak protection ([4]; 3 μmol/kg p.o., mice): 1 h
- Duration of action [4]: ~3 h
- Efficacy in reversing NP in vivo (of full reversal at peak effect) [4]: ~100%
- Ki ([1]; read-out: Ki at α2B): 5500 nM
- Ki (human DAT; read-out: Ki at DAT): 760 nM
- Ki (human DAT; read-out: Ki class at DAT): < 1000 nM
- Off-target effects compared with MRS5698 and MRS5676 [5]: significantly fewer off-target effects
- Interactions at other receptors of the off-target panel [5]: No interactions at other receptors

SMILES: CNC(=O)[C@@]12C[C@@H]1[C@@H](n1cnc3c(NC)nc(C#Cc4ccco4)nc31)[C@H](O)[C@@H]2O [Compound 17, (1S,2R,3S,4R,5S)-4-(2-(Furan-2-ylethynyl)-6-(methylamino)-9H-purin-9-yl)-2,3-dihydroxy-N-methylbicyclo[3.1.0]hexane-1-carboxamide]
- inhibition at 10 µM (hA1AR): 30%
- inhibition at 10 µM (hA2AAR): 18 ± 9%
- Ki (hA3AR): 0.62 ± 0.06 nM
- Ki (mA3AR): 54 ± 11 nM
- inhibition at 10 µM (mA1AR): 59%
- inhibition at 10 µM (mA2AAR): 17%
- Effect at 3 h (% ± SEM) ([4]; 3 μmol/kg p.o., mice, 3 h): 27.6 ± 1.3%
- Max. effect Emax (% ± SEM) ([4]; 3 μmol/kg p.o., mice): 100 ± 0.0%
- Time of peak protection ([4]; 3 μmol/kg p.o., mice): 1 h
- Duration of action [4]: ~3 h
- Efficacy in reversing NP in vivo (of full reversal at peak effect) [4]: ~100%
- Interaction at Sigma-1 (r Sigma 1): weak interactions
- Interaction at Sigma-2 (r Sigma 2): weak interactions
- Interaction at PBR (PBR): weak interactions
- Off-target effects compared with MRS5698 and MRS5676 [5]: significantly fewer off-target effects
- Interactions at other receptors of the off-target panel [5]: No interactions
- half-life ([6]; simulated gastric fluid, read-out: Stability in simulated fluids (t1/2, min): Gastric): > 480 min
- half-life ([6]; simulated intestinal fluid, read-out: Stability in simulated fluids (t1/2, min): Intestinal): > 480 min

SMILES: CNC(=O)[C@@]12C[C@@H]1[C@@H](n1cnc3c(NC)nc(C#Cc4cnn(C)c4)nc31)[C@H](O)[C@@H]2O [Compound 18, (1S,2R,3S,4R,5S)-2,3-Dihydroxy-N-methyl-4-(2-((1-methyl-1H-pyrazol-4-yl)ethynyl)-6-(methylamino)-9H-purin-9-yl)bicyclo[3.1.0]hexane-1-carboxamide]
- inhibition at 10 µM (hA1AR): 35%
- inhibition at 10 µM (hA2AAR): 12 ± 6%
- inhibition at 10 µM (mA1AR): 72%
- inhibition at 10 µM (mA2AAR): 16%
- Max. effect Emax (% ± SEM) ([4]; 3 μmol/kg p.o., mice): 87.3 ± 12.7%
- Time of peak protection ([4]; 3 μmol/kg p.o., mice): 1 h
- Efficacy in reversing NP in vivo (of full reversal at peak effect) [4]: ~100%
- Interaction at Sigma-1 (r Sigma 1): weak interactions
- Interaction at Sigma-2 (r Sigma 2): weak interactions
- Interaction at PBR (PBR): weak interactions
- Off-target effects compared with MRS5698 and MRS5676 [5]: significantly fewer off-target effects
- Interactions at other receptors of the off-target panel [5]: No interactions

SMILES: CNC(=O)[C@H]1O[C@@H](n2cnc3c(NCc4cccc(I)c4)ncnc32)[C@H](O)[C@@H]1O [IB-MECA]
- Effect on opioid dependence (morphine-dependent rats): block opioid dependence

SMILES: CNC(=O)[C@@]12C[C@@H]1[C@@H](n1cnc3c(NCc4cccc(Cl)c4)nc(C#Cc4ccc(F)c(F)c4)nc31)C(O)[C@H]2O (stereo partly drawn) [MRS5698, reference compound]
- Findings after oral dosing (Sprague Dawley rats): No abnormal findings
- Interaction with DAT (human DAT): does not interact with DAT
- Interactions at other receptors of the off-target panel [5]: No interactions at other receptors
- Analgesic effect of the A3AR agonist dose per se ([7]; […]): no analgesic effects per se

SMILES: CNC(=O)[C@]12CC1[C@@H](n1cnc3c(NC)nc(C#Cc4ccc(Br)s4)nc31)[C@H](O)C2O (stereo partly drawn) [compound 100]
- IC50 [8]: > 7000 nM

SMILES: CN1CC[C@]23c4c5ccc(O)c4O[C@H]2[C@@H](O)C=C[C@H]3[C@H]1C5 [morphine]
- Reversal of mechano-allodynia by morphine alone on daily dosing ([7]; given daily over 25 days): loses its ability to reverse mechano-allodynia
- Reversal of mechano-allodynia by morphine alone ([7]; s.c. injection at day 7): near-to-maximal reversal of mechano-allodynia
